Tests used:
[1] = MTS cell viability assay, NCM460 normal colon epithelial cells; assay type: cell-based, human; conditions: human, NCM460 normal colon epithelial cells, 10 μM
Description: (§1) Human colorectal cancer cell lines including RKO, SW620 and SW480 were purchased from Chinese Academy of Sciences, a typical cell library culture preservation committee (Shanghai, China). Normal human colon epithelial cell line NCM460 was purchased from ATCC (Washington, DC, USA). RPMI-1640 medium (12633020), foetal bovine serum (FBS, 26170043), penicillin-streptomycin (10378016) and phosphate buffered saline (PBS, 70011044) were purchased from Gibco (Eggenstein, Germany). 5-Fluorouracil (5-FU, E0201010050, purity ≥98%) was purchased from Energy Chemical (Shanghai, China). Dimethyl sulfoxide (DMSO, 41639) was obtained from Sigma-Aldrich (St. Louis, MO). 3–(4,5-dimethylthiazol-2-yl)-5–(3-carboxymethoxyphenyl)-2–(4-sulfophenyl)-2H-tetrazolium (MTS, G1111) was purchased from Promega (Madison, WI, USA). All cell lines were cultured in RPMI-1640 medium supplemented with 10% FBS, penicillin (100 units/mL) and streptomycin ([…]) at 37 °C in a humidified atmosphere containing 5% CO2.
(§2) Cell viability was measured via MTS assay. RKO, SW620, SW480 and NCM460 cells were seeded in 96-well plates at a density of 5000 cells per well for 24 h. After treatment with the test compounds at indicated concentration for another 48 h or 72 h at 37 °C, MTS solution was added to each well and incubated for another 30 min at 37 °C. Then, the absorbance at 490 nm was measured by a BioTek Synergy H4 microplate Reader (Vermont, USA). The IC50 values were calculated with Graphpad 7.0 software packages.

[2] = tested on: NCM460 cells; assay: as above; assay type: cell-based, human; conditions: Homo sapiens, 48 h
Description: as §1, §2

[3] = tested on: SW480 cells; assay: Cell cycle analysis (PI, flow cytometry), SW480 cells; assay type: cell-based, human; conditions: SW480, 16 μM, 24 h
Protocol: (§3) Cells were seeded in 6-well plates (40,000 cells per well) and cultured in RPMI-1640 medium containing 10% FBS overnight. Then the cells were exposed to DMSO or compound ID-11 (8 or 16 μM) for 24 h. After that, cells were collected, washed with cold PBS for twice and fixed in 75% ethanol overnight at 4 °C. Subsequently, ethanol was removed and suspended in PBS for twice, and then RNase A and propidium iodide (PI) (Multi Sciences, Hangzhou, China) was added and keep in the darkness for 30 min. Finally, the percentages of cells in different cell cycle phases were measured using a FACS Calibur flow cytometer (Bectone Dickinson, San Jose, CA, USA).

[4] = tested on: SW620 cells; assay: Cell cycle analysis (PI, flow cytometry), SW620 cells; assay type: cell-based, human; conditions: SW620, 16 μM, 24 h
Protocol: as §3

[5] = tested on: SW480 cells; assay: Annexin V-FITC/PI apoptosis analysis, SW480 cells; assay type: cell-based, human; conditions: SW480, 16 μM, 24 h
Protocol: (§4) Cell apoptosis was determined using Annexin V-FITC/PI Apoptosis Detection Kit (BD Biosciences, New Jersey, USA) in according with manufacturer's instruction. Briefly, cells were cultured in 6-well plates (40 000 cells per well) till reaching logarithmic growth phase and then treatment with DMSO or compound ID-11 (8 or 16 μM) for 24 h. Afterwards, the cells were harvested, washed with PBS for twice and stained with 100 μL of the mixture of Annexin V/FITC and PI in binding buffer (v/v, 5: 5: 100) in the darkness for 30 min. Another 200 μL binding buffer was added before detection. The apoptotic cells were then analysed by FACS Calibur flow cytometry immediately.

[6] = tested on: SW480 cells; assay: Western blot assay, SW480 cells; assay type: cell-based, human; conditions: 24 h
Protocol: Cells were cultured in 6-well plates at a density of 40,000 cells per well overnight, and then exposed to selected compounds at different concentrations for 24 h. Subsequently, the cells were lysed in lysate buffer containing 50 mM Tris-HCl (PH 6.8), 2% SDS, 0.1% bromophenol blue, 1.5% DTT, 10% glycerol. The total protein extracts were boiled, sonicated, separated by 10–12% SDS-PAGE gels and transferred to polyvinylidene fluoride (PVDF) membranes. Then the membranes were blocked with 5% non-fat milk at room temperature for 1 h and incubated with primary antibodies at 4 °C overnight. After that, membranes were washed with 1× TBST for three times and incubated with secondary antibody at room temperature for 2 h. Finally, after washing with 1× TBST for three times, the bolts were visualised by an enhanced chemiluminescence kit (Beyotime, China) using the Amersham Imager 600 system (GE Healthcare Life Science, Shanghai, China).

[7] = target: T1, BRD4 (BD2) (Homo sapiens, UniProt O60885); assay: HTRF assay BRD4 (BD2); assay type: binding; conditions: read-out: Inhibitory rate at 10 μM, BRD4 (BD2)
T1 construct: purchased Reaction Biology Corp. RD-11-158
Protocol: In brief, compounds were serially diluted in Echo plate according to the plate map and DMSO’s final fraction is 0.1%. Then, transferring compounds and DMSO to 384-well assay plate by Echo. After that, 2× Protein and Peptide Mix was added to the assay plate and 2× Detection Mix was then added to assay plate and shook for 30 s. After incubating the plate at room temperature for 1.5 h, the HTRF signals (Excitation wavelength at 340 nm, Emission wavelength at 615 & 665 nm) was read on EnVision (PerkinElmer, UK). (+)-JQ1 (BPS Bioscience, Cat. No. 27402) was used as a positive control. BRD4-1 (RD-11–157) and BRD4-2 (RD-11–158) were purchased from Reaction Biology Corp. (PENN, USA). For Curve fitting, the inhibition values was calculated in Excel using Equation (1): Inhibition %=(Max-Signal)/(Max-Min)*100, and the IC50 values was calculated in XL-Fit using Equation (2): Y = Bottom + (Top-Bottom)/(1+(IC50/X)[…]), Y is %inhibition and X is compound concentration.

[8] = tested on: SW620 cells; assay: MTS cell viability assay, SW620 cells; assay type: cell-based; conditions: Homo sapiens
Description: as §1, §2

[9] = tested on: SW620 cells; assay: Colony formation, SW620 cells; assay type: cell-based, human; conditions: 0 to 32 μM for 24 h, then 10 days
Protocol: SW620 and SW480 cells were seeded in 6-well plates (1000 cells per well) and cultured in RPMI-1640 medium containing 10% FBS overnight. After the cells treatment with DMSO or compound ID-11 (4, 8, 16, and 32 μM) for 24 h, the culture medium was replaced by fresh RPMI-1640 medium (containing 10% FBS) and continue culturing for another 10 days. Then the cells were washed with PBS and fixed with methanol for 15 min and stained with 0.1% crystal violet for another 30 min. Finally, the cells were washed with running water, air-dried and visualised by photographing.

[10] = tested on: SW620 cells; assay: Annexin V-FITC/PI apoptosis analysis, SW620 cells; assay type: cell-based, human; conditions: SW620, 16 μM, 24 h
Protocol: as §4

For `O=c1ccc2cc(CSC(=S)n3ccnc3)ccc2o1` [ID-11, (2-Oxo-2H-chromen-6-yl)methyl 1H-imidazole-1-carbodithioate], the viability at 48 h, 10 µM [1] was 80.8%, the IC50 [2] was 23.9 µM and the “cell cycle distribution G2 (G2/M phase)” value [3] was 21.03%. For the same molecule, the “cell cycle distribution G2 (G2/M phase)” value [4] was 33.13%, the melting point was 139.1 to 140 °C and the total apoptosis rate [5] was 23.23%. The “expression level of cdc2” value ([6]; SW480, 0 to 16 μM) was “decreased in a concentration-dependent way”, the “expression level of cleaved PARP” value ([6]; SW480, 0 to 16 μM) was “increased in a dose-dependent way” and the “expression level of cyclin B1” value ([6]; SW480, 0 to 16 μM) was “decreased in a concentration-dependent way”. For the same molecule, the “protein expression level of Bcl-2” value ([6]; SW480, 0 to 24 μM) was “decreased”, the “protein expression level of c-Myc” value ([6]; SW480, 0 to 24 μM) was “decreased” and the inhibition at 10 µM [7] was 35.7%. The viability at 10 µM ([8]; SW-620, 10 μM, 72 h) was 43.9%, the IC50 ([8]; SW-620, 72 h) was 8.81 µM and the colony formation [9] was “effectively inhibited”. For the same molecule, the total apoptosis rate [10] was 73.31%.

Source: PMC8759731, “Design, synthesis, and evaluation of novel coumarin-dithiocarbamate derivatives (IDs) as anti-colorectal cancer agents” (Journal of Enzyme Inhibition and Medicinal Chemistry, 2021)
